Residues, ends and D or L forms follow the SMILES beside them. *: point of attachment. Cbz = O=C(OCc1ccccc1)*
Experiments:
[1] = test system: IFN-γ; assay: In vitro cross-presentation assay (IFN-γ release by B3Z cells); type: cell-based, mouse; conditions: Hsp25-siRNA- and control-siRNA-treated BMDC; 10 μM
[2] = test system: AsPC1 cells; assay: MTS cytotoxicity assay, AsPC1 cells pre-treated with control or CH101; type: cell-based; conditions: Homo sapiens, AsPC1, highly metastatic pancreatic cell, 48 h control or CH101 pre-treatment, then 72 h drug
Procedure: FIG. 8A-B. Combining CH101 with oxaliplatm synergistieally functions to reduce the IC50 in the highly agreesive, highly metastatic pancreatic cell, AsPC1, AsPC1 cells (10^6) were plated in 96-well plates and either pre-treated with control (top panel) or CH101 (bottom panel) for 48 hrs in a 37 degree C incubator. AsPC1 cells were then treated with various doses of oxaliplatm (A) or irlootecan (B) and further incubated for 72 h. Cytotoxicity was measured using the classical MTS assay.

[3] = test system: Panc-1 cells; assay: MTS cytotoxicity assay, Panc-1 cells pre-treated with control or CH101; type: cell-based; conditions: Panc-1, weakly metastatic pancreatic cell, 48 h control or CH101 pre-treatment, then 72 h drug
Procedure: FIG. 7. Combining CH101 with oxaliplatin synergistically functions to reduce the IC50 in the weakly metastatic pancreatic cell Panc-1. Panc-1 cells (10^6) were plated in 96-well plates and either pre-treated with control (top panel) or CH101 (bottom panel) for 48 h in a 37 degree C incubator. Panc-1 cells were then treated with various doses of oxaliplatm and further incubated for 72 hours. Cytotoxicity was measured using the classical MTS assay.

[4] = test system: MDA-MB-231, AsPC1, MCF7, Panc-1; assay: CH101 against highly metastatic versus non- or weakly metastatic cancers; type: cell-based; conditions: MDA-MB-231 and AsPC1 versus MCF7 and Panc-1

## CC(C)C[C@@H](C=O)NC(=O)[C@H](CC(C)C)NC(=O)[C@H](CC(C)C)NC(=O)OCc1ccccc1 [MG-132] (Cbz-Leu-Leu-Leu-aldehyde)
[1]
  IFN-γ released by B3Z cells after proteasome inhibitor pre-treatment: significantly reduced the concentration of released IFN-γ

## CCc1c2c(nc3ccc(OC(=O)N4CCC(N5CCCCC5)CC4)cc13)-c1cc3c(c(=O)n1C2)COC(=O)[C@]3(O)CC [irinotecan]
[2]
  IC50: 36.8 µM

## O=C1[O][Pt]2([NH][C@@H]3CCCC[C@H]3[NH]2)[O]C1=O [oxaliplatin]
[3]
  IC50: 23 µM

B1: CH101: cocktail of two dsRNA molecules, dsRNA SEQ ID NO:8/SEQ ID NO:9 and dsRNA SEQ ID NO:10/SEQ ID NO:11, blocking Hsp27 (nucleic acid)
chain 1: AAGGACGAGCATGGCTACATC
chain 2: GATGTAGCCATGCTCGTCCTT
chain 3: CACAGCCGCCTCTTCGATCAA
chain 4: TTGATCGAAGAGGCGGCTGTG
modifications: two duplexes cocktail, further chemistry not given here
[4]
  relative effectiveness by metastatic type of cancer: more effective against highly metastatic cancers
